Laboratory results: PubChem BioAssay AID2060621 (Molecular Pharmacology Branch, DTP, NCI, 2025)

System: 324938-238-R-J1-PDC complex spheroids viability
Experiment: Anticancer human tumor 324938-238-R-J1-PDC patient-derived bladder carcinoma cell line growth inhibition [CLK]
Details: for IC50: curve of first compound; for viability, T/C: stronger effect = lower value
Outline: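 Patient-derived tumor cells grown as complex spheroids with HUVEC endothelial cells and mesenchymal stem cells, treated with drug combinations. Concentrations descend in half-log steps from near clinical Cmax, or from 10 microM if Cmax unknown.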

[1] = second compound 0.0316 µM, first compound 0.0316 µM
[2] = second compound 0.0316 µM, first compound 0.1 µM
[3] = second compound 0.0316 µM, first compound 0.316 µM
[4] = second compound 0.0316 µM, first compound 1 µM
[5] = second compound 0.0316 µM, first compound 3.16 µM
[6] = second compound 0.0316 µM, first compound 10 µM
[7] = second compound 0.1 µM, first compound 0.0316 µM
[8] = second compound 0.1 µM, first compound 0.1 µM
[9] = second compound 0.1 µM, first compound 0.316 µM
[10] = second compound 0.1 µM, first compound 1 µM
[11] = second compound 0.1 µM, first compound 3.16 µM
[12] = second compound 0.1 µM, first compound 10 µM
[13] = second compound 0.316 µM, first compound 0.0316 µM
[14] = second compound 0.316 µM, first compound 0.1 µM
[15] = second compound 0.316 µM, first compound 0.316 µM
[16] = second compound 0.316 µM, first compound 1 µM
[17] = second compound 0.316 µM, first compound 3.16 µM
[18] = second compound 0.316 µM, first compound 10 µM
[19] = second compound 1 µM, first compound 0.0316 µM
[20] = second compound 1 µM, first compound 0.1 µM
[21] = second compound 1 µM, first compound 0.316 µM
[22] = second compound 1 µM, first compound 1 µM
[23] = second compound 1 µM, first compound 3.16 µM
[24] = second compound 1 µM, first compound 10 µM
[25] = second compound 3.16 µM, first compound 0.0316 µM
[26] = second compound 3.16 µM, first compound 0.1 µM
[27] = second compound 3.16 µM, first compound 0.316 µM
[28] = second compound 3.16 µM, first compound 1 µM
[29] = second compound 3.16 µM, first compound 3.16 µM
[30] = second compound 3.16 µM, first compound 10 µM
[31] = second compound 10 µM, first compound 0.0316 µM
[32] = second compound 10 µM, first compound 0.1 µM
[33] = second compound 10 µM, first compound 0.316 µM
[34] = second compound 10 µM, first compound 1 µM
[35] = second compound 10 µM, first compound 3.16 µM
[36] = second compound 10 µM, first compound 10 µM
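Also: viability read after seven days of drug exposure.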
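For viability, T/C in this document: 100% = DMSO vehicle control wells.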

CC1(C)CCC(CN2CCN(c3ccc(C(=O)NS(=O)(=O)c4ccc(NCC5CCOCC5)c([N+](=O)[O-])c4)c(Oc4cnc5[nH]ccc5c4)c3)CC2)=C(c2ccc(Cl)cc2)C1 + CN1CCN(c2cc(C(=O)Nc3cc4cc(-c5cnn(C)c5)ccc4cn3)ccn2)CC1
IC50 (second compound 0.0316 µM): 6720 nM | IC50 (second compound 0.1 µM): 1480 nM | IC50 (second compound 0.316 µM): < 31.6 nM | IC50 (second compound 1 µM): < 31.6 nM | IC50 (second compound 3.16 µM): < 31.6 nM | IC50 (second compound 10 µM): < 31.6 nM | viability, T/C [1]: 79.6% | viability, T/C [2]: 90.2% | viability, T/C [3]: 80.3% | viability, T/C [4]: 81% | viability, T/C [5]: 82.8% | viability, T/C [6]: 32.7% | viability, T/C [7]: 51.9% | viability, T/C [8]: 55.4% | viability, T/C [9]: 47.4% | viability, T/C [10]: 54.9% | viability, T/C [11]: 46.2% | viability, T/C [12]: 26.4% | viability, T/C [13]: 25.2% | viability, T/C [14]: 22.9% | viability, T/C [15]: 19% | viability, T/C [16]: 24.8% | viability, T/C [17]: 21.5% | viability, T/C [18]: 11.6% | viability, T/C [19]: 1.53% | viability, T/C [20]: 1.38% | viability, T/C [21]: 1.4% | viability, T/C [22]: 1.48% | viability, T/C [23]: 1.08% | viability, T/C [24]: 0.34% | viability, T/C [25]: 0.12% | viability, T/C [26]: 0.21% | viability, T/C [27]: 0.14% | viability, T/C [28]: 0.14% | viability, T/C [29]: 0.11% | viability, T/C [30]: 0.16% | viability, T/C [31]: 0.12% | viability, T/C [32]: 0.16% | viability, T/C [33]: 0.16% | viability, T/C [34]: 0.14% | viability, T/C [35]: 0.19% | viability, T/C [36]: 0.19%

CC1COCCN1c1cc(C2(S(C)(=N)=O)CC2)nc(-c2ccnc3[nH]ccc23)n1 (stereo unspecified) + CN1CCN(c2cc(C(=O)Nc3cc4cc(-c5cnn(C)c5)ccc4cn3)ccn2)CC1
IC50 (second compound 0.0316 µM): 1100 nM | IC50 (second compound 0.1 µM): 400 nM | IC50 (second compound 0.316 µM): < 31.6 nM | IC50 (second compound 1 µM): < 31.6 nM | IC50 (second compound 3.16 µM): < 31.6 nM | IC50 (second compound 10 µM): < 31.6 nM | viability, T/C [1]: 80.1% | viability, T/C [2]: 79.7% | viability, T/C [3]: 70% | viability, T/C [4]: 51.8% | viability, T/C [5]: 28.8% | viability, T/C [6]: 14.8% | viability, T/C [7]: 55.3% | viability, T/C [8]: 52.7% | viability, T/C [9]: 55.3% | viability, T/C [10]: 39.8% | viability, T/C [11]: 22.9% | viability, T/C [12]: 11.5% | viability, T/C [13]: 24.8% | viability, T/C [14]: 24.1% | viability, T/C [15]: 19% | viability, T/C [16]: 21.9% | viability, T/C [17]: 16.1% | viability, T/C [18]: 11.4% | viability, T/C [19]: 1.54% | viability, T/C [20]: 1.37% | viability, T/C [21]: 1.72% | viability, T/C [22]: 1.08% | viability, T/C [23]: 1.06% | viability, T/C [24]: 0.6% | viability, T/C [25]: 0.25% | viability, T/C [26]: 0.15% | viability, T/C [27]: 0.19% | viability, T/C [28]: 0.16% | viability, T/C [29]: 0.16% | viability, T/C [30]: 1.37% | viability, T/C [31]: 0.16% | viability, T/C [32]: 0.17% | viability, T/C [33]: 0.21% | viability, T/C [34]: 0.16% | viability, T/C [35]: 0.22% | viability, T/C [36]: 0.22%

NC(=O)C(=Cn1cnc(-c2cc(C(F)(F)F)cc(C(F)(F)F)c2)n1)c1cncnc1 + CN1CCN(c2cc(C(=O)Nc3cc4cc(-c5cnn(C)c5)ccc4cn3)ccn2)CC1
IC50 (second compound 0.0316 µM): 44.9 nM | IC50 (second compound 0.1 µM): < 9.49 nM | IC50 (second compound 0.316 µM): < 9.49 nM | IC50 (second compound 1 µM): < 9.49 nM | IC50 (second compound 3.16 µM): < 9.49 nM | IC50 (second compound 10 µM): < 9.49 nM | viability, T/C (second compound 0.0316 µM, first compound 0.00949 µM): 73.6% | viability, T/C (second compound 0.0316 µM, first compound 0.03 µM): 56.1% | viability, T/C (second compound 0.0316 µM, first compound 0.0949 µM): 37.3% | viability, T/C (second compound 0.0316 µM, first compound 0.3 µM): 11.8% | viability, T/C (second compound 0.0316 µM, first compound 0.949 µM): 4.81% | viability, T/C (second compound 0.0316 µM, first compound 3 µM): 2.71% | viability, T/C (second compound 0.1 µM, first compound 0.00949 µM): 47.5% | viability, T/C (second compound 0.1 µM, first compound 0.03 µM): 37.8% | viability, T/C (second compound 0.1 µM, first compound 0.0949 µM): 26% | viability, T/C (second compound 0.1 µM, first compound 0.3 µM): 8.9% | viability, T/C (second compound 0.1 µM, first compound 0.949 µM): 3.44% | viability, T/C (second compound 0.1 µM, first compound 3 µM): 1.05% | viability, T/C (second compound 0.316 µM, first compound 0.00949 µM): 21.6% | viability, T/C (second compound 0.316 µM, first compound 0.03 µM): 13.4% | viability, T/C (second compound 0.316 µM, first compound 0.0949 µM): 11.1% | viability, T/C (second compound 0.316 µM, first compound 0.3 µM): 1.12% | viability, T/C (second compound 0.316 µM, first compound 0.949 µM): 0.14% | viability, T/C (second compound 0.316 µM, first compound 3 µM): 0.06% | viability, T/C (second compound 1 µM, first compound 0.00949 µM): 0.21% | viability, T/C (second compound 1 µM, first compound 0.03 µM): 0.17% | viability, T/C (second compound 1 µM, first compound 0.0949 µM): 0.15% | viability, T/C (second compound 1 µM, first compound 0.3 µM): 0.09% | viability, T/C (second compound 1 µM, first compound 0.949 µM): 0.08% | viability, T/C (second compound 1 µM, first compound 3 µM): 0.09% | viability, T/C (second compound 3.16 µM, first compound 0.00949 µM): 0.09% | viability, T/C (second compound 3.16 µM, first compound 0.03 µM): 0.13% | viability, T/C (second compound 3.16 µM, first compound 0.0949 µM): 0.16% | viability, T/C (second compound 3.16 µM, first compound 0.3 µM): 0.12% | viability, T/C (second compound 3.16 µM, first compound 0.949 µM): 0.12% | viability, T/C (second compound 3.16 µM, first compound 3 µM): 0.11% | viability, T/C (second compound 10 µM, first compound 0.00949 µM): 0.07% | viability, T/C (second compound 10 µM, first compound 0.03 µM): 0.12% | viability, T/C (second compound 10 µM, first compound 0.0949 µM): 0.23% | viability, T/C (second compound 10 µM, first compound 0.3 µM): 0.16% | viability, T/C (second compound 10 µM, first compound 0.949 µM): 0.18% | viability, T/C (second compound 10 µM, first compound 3 µM): 0.21%
